Measurements taken from PMC11062899, “De novo development of small cyclic peptides that are orally bioavailable” (Nature Chemical Biology, 2023).
“And” between values parts separate entries of the source, which are not always exact repeats. Equal entries are not always repeated.

Assays:
human α-thrombin = human α-thrombin (Homo sapiens, UniProt P00734); assay: Sub-library screen for active and permeable cyclic peptides (PAMPA plus thrombin inhibition); assay type: biochemical; settings: crude, slopes normalized to DMSO; for Residual thrombin activity: Top sample: PAMPA acceptor well after 14 h, 5 μM donor; for Residual thrombin activity: Equilibrated sample: donor sample diluted to theoretical equilibrium (1 μM in assay)
Procedure, shortened: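 Acylated cyclic peptides at 5 μM in PBS pH 7.4 with 5% DMSO were run through PAMPA for 14 h at room temperature. Acceptor wells and a diluted donor sample at 3 μM, representing maximum permeability, were preincubated 10 min with human α-thrombin (6 nM stock). Z-Gly-Gly-Arg-AMC (150 μM stock) fluorescence was then read for 30 min at 25 °C, and inhibition was taken against a no-peptide control.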

[1] = Passive artificial membrane permeability (PAMPA)

SMILES | Residual thrombin activity: Top sample (human α-thrombin) | Residual thrombin activity: Equilibrated sample (human α-thrombin) | also measured
N#Cc1ccc(C[C@@H]2NC(=O)[C@@H](NC(=O)c3ccc(Cl)s3)CCCSCc3cccc(n3)CSCCNC(=O)C[C@H]3CCCN3C2=O)cc1 [C3-X35-L1] | 93.2 | 95.8 | 
N#Cc1ccc(C[C@@H]2NC(=O)[C@@H](NC(=O)c3ccc(Cl)s3)CCCSCc3ccc(cc3)CSCCNC(=O)C[C@H]3CCCN3C2=O)cc1 [C3-X35-L3] | 103.5 | 94.6 | 
N#Cc1ccc(C[C@@H]2NC(=O)[C@@H](NC(=O)c3ccc(Cl)s3)CCCSC/C=C/CSCCNC(=O)C[C@H]3CCCN3C2=O)cc1 [C3-X35-L4] | 103.2 | 97.2 | 
N#Cc1ccc(C[C@@H]2NC(=O)[C@@H](NC(=O)c3ccc(Cl)s3)CCCSCc3cccc(c3)CSCCNC(=O)C[C@H]3CCCN3C2=O)cc1 [C3-X35-L5] | 107.1 | 100.9 | 
N#Cc1ccc(C[C@@H]2NC(=O)[C@@H](NC(=O)c3ccc(Cl)s3)CCCSCc3ccccc3CSCCNC(=O)C[C@H]3CCCN3C2=O)cc1 [C3-X35-L6] | 96.5 | 93.5 | 
N#Cc1ccc(C[C@@H]2NC(=O)[C@@H](NC(=O)c3ccc(Cl)s3)CCCSCC(=O)CSCCNC(=O)C[C@H]3CCCN3C2=O)cc1 [C3-X35-L7] | 106.1 | 102.1 | 
Cc1cccc(C[C@@H]2NC(=O)[C@@H](NC(=O)c3ccc(Cl)s3)CCCSCc3cccc(n3)CSCCNC(=O)C[C@H]3CCCN3C2=O)c1 [C3-X37-L1] | 78.3 | 49.4 | 
Cc1cccc(C[C@@H]2NC(=O)[C@@H](NC(=O)c3ccc(Cl)s3)CCCSCc3ccc(cc3)CSCCNC(=O)C[C@H]3CCCN3C2=O)c1 [C3-X37-L3] | 90.5 | 68.7 | 
Cc1cccc(C[C@@H]2NC(=O)[C@@H](NC(=O)c3ccc(Cl)s3)CCCSC/C=C/CSCCNC(=O)C[C@H]3CCCN3C2=O)c1 [C3-X37-L4] | 84.2 | 63.6 | 
Cc1cccc(C[C@@H]2NC(=O)[C@@H](NC(=O)c3ccc(Cl)s3)CCCSCc3cccc(c3)CSCCNC(=O)C[C@H]3CCCN3C2=O)c1 [C3-X37-L5] | 100.9 | 83.4 | 
Cc1cccc(C[C@@H]2NC(=O)[C@@H](NC(=O)c3ccc(Cl)s3)CCCSCc3ccccc3CSCCNC(=O)C[C@H]3CCCN3C2=O)c1 [C3-X37-L6] | 92.8 | 79.2 | 
Cc1cccc(C[C@@H]2NC(=O)[C@@H](NC(=O)c3ccc(Cl)s3)CCCSCC(=O)CSCCNC(=O)C[C@H]3CCCN3C2=O)c1 [C3-X37-L7] | 84.8 | 58.3 | 
CC(C)NCC(O)COc1cccc2ccccc12 (stereo not drawn) [Propranolol, reference compound] |  |  | PAMPA permeability: % permeability ([1]; 50 μM, 12–18 h, acceptor concentration relative to equilibrium): 71 ± 9%; Permeability% Average ([1]; 50 μM, 13 h (Fig. 5d)): 91.0%; Permeability% (single replicates R1–R3) ([1]; 50 μM, 13 h (Fig. 5d), listed as Probranolol): 87.80% and 90.16% and 95.18%; Papp at 50 μM ([1]; PAMPA, pH 7.4): 12.3 ×10⁻⁶ cm/s; Permeability% Average ([1]; top well sample vs theoretical equilibrium sample (TIC), average of R1-R3): 71.1%; Permeability% ([1]; top well sample vs theoretical equilibrium sample (TIC), single replicates R1-R3, listed as Probranolol): 79.61% and 72.27% and 61.48%

Second part, led by results:

Residual thrombin activity: Top sample (human α-thrombin) | Residual thrombin activity: Equilibrated sample (human α-thrombin) | SMILES | also measured
106.0 | 96.7 | N#Cc1ccc(C[C@@H]2NC(=O)[C@@H](NC(=O)c3ccc(Cl)s3)CCCSCCS(=O)(=O)CCSCCNC(=O)C[C@H]3CCCN3C2=O)cc1 [C3-X35-L2] | 
102.2 | 98.3 | O=C1C[C@H]2CCCN2C(=O)[C@H](Cc2ccc(C(F)(F)F)cc2)NC(=O)[C@@H](NC(=O)c2ccc(Cl)s2)CCCSCc2cccc(n2)CSCCN1 [C3-X36-L1] | 
105.4 | 99.8 | O=C1C[C@H]2CCCN2C(=O)[C@H](Cc2ccc(C(F)(F)F)cc2)NC(=O)[C@@H](NC(=O)c2ccc(Cl)s2)CCCSCCS(=O)(=O)CCSCCN1 [C3-X36-L2] | 
101.9 | 98.7 | O=C1C[C@H]2CCCN2C(=O)[C@H](Cc2ccc(C(F)(F)F)cc2)NC(=O)[C@@H](NC(=O)c2ccc(Cl)s2)CCCSCc2ccc(cc2)CSCCN1 [C3-X36-L3] | 
103.6 | 102.0 | O=C1C[C@H]2CCCN2C(=O)[C@H](Cc2ccc(C(F)(F)F)cc2)NC(=O)[C@@H](NC(=O)c2ccc(Cl)s2)CCCSC/C=C/CSCCN1 [C3-X36-L4] | 
105.6 | 108.0 | O=C1C[C@H]2CCCN2C(=O)[C@H](Cc2ccc(C(F)(F)F)cc2)NC(=O)[C@@H](NC(=O)c2ccc(Cl)s2)CCCSCc2cccc(c2)CSCCN1 [C3-X36-L5] | 
96.6 | 97.7 | O=C1C[C@H]2CCCN2C(=O)[C@H](Cc2ccc(C(F)(F)F)cc2)NC(=O)[C@@H](NC(=O)c2ccc(Cl)s2)CCCSCc2ccccc2CSCCN1 [C3-X36-L6] | 
101.7 | 101.7 | O=C1CSCCC[C@H](NC(=O)c2ccc(Cl)s2)C(=O)N[C@@H](Cc2ccc(C(F)(F)F)cc2)C(=O)N2CCC[C@@H]2CC(=O)NCCSC1 [C3-X36-L7] | 
92.4 | 51.6 | Cc1cccc(C[C@@H]2NC(=O)[C@@H](NC(=O)c3ccc(Cl)s3)CCCSCCS(=O)(=O)CCSCCNC(=O)C[C@H]3CCCN3C2=O)c1 [C3-X37-L2] | 
